Experiments:
[1] = test system: MDA-MB-231; assay: MTT assay, MDA-MB-231 cells; format: cell-based, human; settings: Homo sapiens, MDA-MB-231, 72 h of incubation, read-out: IC50 values ± SD, MDA-MB-231
Source text: (§1) The impact of acridine spiro derivatives 6–10 (Figure 13) on the metabolic activity of various tumor cell lines HCT-116 (human colorectal carcinoma), Jurkat (human leukemia cells), HeLa (human cervical adenocarcinoma), MDA-MB-231, and MCF-7 (human breast adenocarcinoma), and normal cell lines COS-7 (monkey kidney cells) and BJ-5ta (skin fibroblasts) was investigated using the MTT assay. This assay measures the conversion of yellow 3-(4,5-dimethylthiazol-2-yl)-2,5-diphenyltetrazolium bromide (MTT) to insoluble purple formazan by metabolically active cells. The antiproliferative activities of the tested compounds were determined based on the results from the MTT assay, and the inhibitory concentration values (IC50) are presented in Table 5.
(§2) The human cancer cell lines employed in this study were sourced from reputable institutions, including the American Type Culture Collection (ATCC; Manassas, VA, USA) and the European Collection of Authenticated Cell Cultures (ECACC, Salisbury, UK). Specifically, HeLa (93021013, human cervical adenocarcinoma), HCT116 (CCL-247TM, human colorectal carcinoma), and Jurkat (88042803, human leukemic T-cell lymphoma) were cultured in RPMI 1640 medium (Biosera, Kansas City, MO, USA). In contrast, MCF-7 (HTB-22TM, human breast adenocarcinoma, ER+), MDA-MB-231 (HTB-26TM, human breast adenocarcinoma, ER−), and COS-7 (CRL-1651TM, kidney fibroblasts) were nurtured in high-glucose Dulbecco’s Modified Eagle Medium (DMEM) supplemented with sodium pyruvate (Biosera). Furthermore, BJ-5ta (CRL-4001TM, human dermal fibroblasts) was cultured in a composite medium of high-glucose DMEM and M199 (4:1) (Biosera), supplemented with Hygromycin B (0.01 mg/mL; Merck, Darmstadt, Germany). All culture media were enriched with a 10% fetal bovine serum (FBS; Gibco, Thermo Scientific, Rockford, IL, USA) and an antibiotic/antimycotic solution (Merck) to ensure optimal growth conditions. The cells were meticulously maintained within a humidified environment containing 5% CO2 at 37 °C. Regular screenings for mycoplasma contamination were conducted using Hoechst 33342 staining (Merck), confirming the integrity of the cell lines.
(§3) To assess the antiproliferative impact of the synthesized compounds 6–10, their half-maximal inhibitory concentration (IC50) and the MTT colorimetric assay were employed. MDA-MB-231 and MCF-7 cells were seeded into 96-well microplates (SARSTEDT, Nümbrecht, Germany) at a density of 5 × 10^3 cells per well. After 24 h of cell seeding, various concentrations (100, 50, and 10 µmol/L) of acridine derivatives 6–10 were introduced, alongside cisplatin (utilized as a reference) at concentrations of 5, 10, 20, 50, and 100 µmol/L. Subsequent to 24, 48, and 72 h of treatment, the cells in each well underwent incubation with MTT (5 mg/mL, Sigma-Aldrich Chemie, Steinheim, Germany) for 4 h at 37 °C in the dark. During this period, mitochondrial oxidoreductases metabolized MTT, forming insoluble formazan. Following this, 100 µL of SDS (10% […]) was added to dissolve the formazan crystals, and the cells were incubated for an additional 12 h. Absorbance at 540 nm was measured using the automated Cytation™ 3 Cell Imaging Multi-Mode Reader (Biotek, Winooski, VT, USA). Each test was performed in triplicate, and three independent experiments were conducted to ensure precision and reliability.

[2] = test system: HCT-116; assay: MTT assay, HCT-116 cells; format: cell-based, human; settings: for IC50: Homo sapiens, HCT-116, MTT, 72 h of incubation, read-out: IC50 values ± SD, HCT-116
Source text: as §1, §2, §3

[3] = test system: HeLa; assay: MTT assay, HeLa cells; format: cell-based, human; settings: Homo sapiens, HeLa, 72 h of incubation, read-out: IC50 values ± SD, HeLa
Source text: as §1, §2, §3

[4] = test system: primary brain endothelial cells; assay: Endothelial cell viability assay (ATP, CellTiter-Glo); format: cell-based, rats; settings: primary rat brain endothelial cells
Source text: To comprehensively evaluate the cytotoxic effects of the investigated compounds 6c, 6e, and 8a, 8c, we conducted tests on primary endothelial cells. This additional assessment served multiple purposes in our study. Firstly, it aimed to assess the selectivity of these compounds, particularly in comparison to their effects on both tumor and normal cell lines. […] Secondly, by examining their impact on endothelial cells, we aimed to explore potential off-target effects, as endothelial cells are crucial components of blood vessels and play a pivotal role in angiogenesis—a process intricately linked to tumor growth. Lastly, these tests allowed for a broader safety assessment, beyond the scope of tumor and normal cell lines, providing insights into the compounds’ implications for vascular health and their regulatory role in angiogenesis.
Primary brain endothelial cells were isolated from rats (200–250 g, […]; n = 5 per isolation). Euthanasia was performed by CO2 exposure, followed by brain removal. The brainstem and cerebellum were dissected, and the white matter from the midbrain and choroid plexus was excised under sterile conditions. Cortical tissues were meticulously cleaned of meninges and homogenized on ice in a DMEM-F12 medium (PAA Laboratories GmbH, Cölbe, Germany) with 0.1% bovine serum albumin (BSA, Sigma-Aldrich, St. Louis, MO, USA). The homogenate was centrifuged at 800× g for 10 min at 4 °C. After aspirating the supernatant, the pellet was resuspended in a pre-warmed digestion mix containing 1 mg/mL collagenase/dispase (Roche Diagnostics, Indianapolis, IN, USA) and 10 μg/mL DNase I (Roche Diagnostics, Indianapolis, IN, USA). The homogenates were then incubated with the pre-prepared digestion mix at 37 °C for 30 min with gentle shaking. The preparation was centrifuged at 800× g for 10 min at 4 °C, and the pellets were resuspended in 20% BSA in the medium. The tissues were centrifuged at 1500× g for 15 min at 4 °C to obtain a pellet containing microvessels with a fraction of myelin and BSA on top, which was centrifuged again. The microvessels were pooled and resuspended in a pre-warmed digestion mix and incubated for 15 min at 37 °C. The pellet was then centrifuged at 800× g for 10 min at 4 °C and washed with a serum-containing DMEM-F12 culture medium. […] The endothelial cells were ready to use after 7 days.
The endothelial cell viability was assessed through the quantification of adenosine triphosphate (ATP) released from the cells, utilizing the ATP assay as per the manufacturer’s instructions (The Promega CellTiter-Glo™ Luminescent Cell Viability Assay Kit, Madison, WI, USA). […]

[5] = test system: COS-7; assay: MTT assay, COS-7 normal cells; format: cell-based, monkey; settings: Primates, COS-7, 72 h of incubation, normal cell line, read-out: IC50 values ± SD, COS-7
Source text: as §1, §2, §3

[6] = test system: BJ-5ta; assay: MTT assay, BJ-5ta normal fibroblasts; format: cell-based, human; settings: Homo sapiens, Fibroblast, 72 h of incubation, normal cell line, read-out: IC50 values ± SD, BJ-5ta
Source text: as §1, §2, §3

[7] = test system: MCF-7; assay: MTT assay, MCF-7 cells; format: cell-based, human; settings: Homo sapiens, MCF7, 72 h of incubation, read-out: IC50 values ± SD, MCF-7
Source text: as §1, §2, §3

[8] = test system: Jurkat; assay: MTT assay, Jurkat cells; format: cell-based, human; settings: for IC50: Homo sapiens, Jurkat, MTT, 72 h of incubation, read-out: IC50 values ± SD, Jurkat
Source text: as §1, §2, §3

melting point | IC50 [1] | IC50 [2] | IC50 [3] | IC50 [7] | IC50 [8] | SMILES | selectivity index, HCT-116 compared to non-tumor cells COS-7 and BJ-5ta ([2]; ratio of IC50 values) | IC50 [4] | IC50 [5] | IC50 [6] | selectivity index, Jurkat compared to non-tumor cells COS-7 and BJ-5ta ([8]; ratio of IC50 values)
184 to 186 °C (dec.) | 47.2 ± 1.17 µM | 7 ± 0.22 µM | 41.1 ± 1.91 µM | 34.2 ± 5.01 µM | 6.47 ± 0.27 µM | COc1cccc(NC(=S)NN2C(=O)C(C#N)=CC23c2ccccc2Nc2ccccc23)c1 [6c, 3-{4′-Cyano-5′-oxo-1′,5′-dihydro-10H-spiro[acridine-9,2′-pyrrol]-1′-yl}-1-(3-methoxyphenyl)thiourea] | exceeding 10 | 39 µM | 83.4 ± 4.79 µM | 73.2 ± 2.41 µM | exceeding 10
175 to 179 °C (dec.) | 78.8 ± 4.87 µM | 19.6 ± 1.07 µM | 52.1 ± 2.99 µM | 39.7 ± 0.58 µM | 7.82 ± 0.31 µM | N#CC1=CC2(c3ccccc3Nc3ccccc32)N(NC(=S)Nc2ccc([N+](=O)[O-])cc2)C1=O [6e, 3-{4′-Cyano-5′-oxo-1′,5′-dihydro-10H-spiro[acridine-9,2′-pyrrol]-1′-yl}-1-(4-nitrophenyl)thiourea] | – | 45 µM | 87.1 ± 5.82 µM | 71.1 ± 2.62 µM | –
256 to 259 °C (dec.) | 7.85 ± 0.69 µM | 5.46 ± 0.04 µM | 5.77 µM | 7.9 ± 0.49 µM | 5.67 ± 0.06 µM | CCOC(=O)/C=C1\S/C(=N\N2C(=O)C(C#N)=CC23c2ccccc2Nc2ccccc23)N(c2ccccc2)C1=O [8a, Ethyl 2-[(2Z,5Z)-2-({4′-cyano-5′-oxo-1′,5′-dihydro-10H-spiro[acridine-9,2′-pyrrol]-1′-yl}imino)-4-oxo-3-phenyl-1,3-thiazolidin-5-ylidene]acetate] | – | 5 µM | 9.15 ± 0.12 µM | 7.25 ± 0.41 µM | –
239 to 243 °C (dec.) | 7.98 ± 0.93 µM | 5.44 ± 0.05 µM | 5.83 ± 0.03 µM | 7.75 ± 0.41 µM | 5.67 ± 0.03 µM | CCOC(=O)/C=C1\S/C(=N\N2C(=O)C(C#N)=CC23c2ccccc2Nc2ccccc23)N(c2cccc(OC)c2)C1=O [8c, Ethyl 2-[(2Z,5Z)-2-({4′-cyano-5′-oxo-1′,5′-dihydro-10H-spiro[acridine-9,2′-pyrrol]-1′-yl}imino)-3-(3-methoxyphenyl)-4-oxo-1,3-thiazolidin-5-ylidene]acetate] | – | 20 µM | 8.95 ± 0.08 µM | 7.18 ± 0.19 µM | –
